Assay results from patent publication US12012411B2, “Viral replication inhibitors” (Katholieke Universiteit Leuven, priority 2011, dated 2024).
Read-outs that look alike come from different tables or passages of the source.

Assays:
[1] = tested on: DENV-2 NGC; assay: Antiviral activity against DENV-2 NGC in Vero-B cells (viral RNA load by RT-qPCR); assay type: cell-based, Dengue virus; details: DENV-2 in Vero-B cells, inhibition of viral RNA replication by 50% (Table 3)
[2] = tested on: DENV-1 Djibouti strain D1/H/IMTSSA/98/606; assay: Antiviral activity against DENV-1 in Vero-B cells (viral RNA load by RT-qPCR); assay type: cell-based, Dengue virus
[3] = tested on: DENV-3 strain H87 prototype; assay: Antiviral activity against DENV-3 in Vero-B cells (viral RNA load by RT-qPCR); assay type: cell-based, Dengue virus
[4] = tested on: DENV-4 strain Dak HD 34 460; assay: Antiviral activity against DENV-4 in Vero-B cells (viral RNA load by RT-qPCR); assay type: cell-based, Dengue virus; details: Dengue virus, DENV4, Vero B
[5] = in vitro; details: African green monkey; for CC50 at 4 days: uninfected quiescent Vero-B cells

Structure (SMILES) | EC50 [1] [µM] | EC50 [2] [µM] | EC50 [3] [µM] | EC50 [4] [µM] | CC50 at 4 days [5] [µM] | EC50 ([1]; Dengue virus, DENV2, Vero B) [µM] | EC50 ([2]; Dengue virus, DENV1, Vero B) [µM] | EC50 ([3]; Dengue virus, DENV3, Vero B) [µM] | CC50 [5] [µM]
COc1cncc(NC(C(=O)c2c[nH]c3ccc(F)cc23)c2ccc(OC)nc2)c1 (single isomer, unassigned) [CPD-322] | 0.02 | 0.3 | 0.32 | 3 | 51 | – | – | – | –
COc1cccc(NC(C(=O)c2c[nH]c3ccccc23)c2cc(C)on2)c1 (stereo not drawn) [CPD-025] | – | – | – | 11.8 | 48 | 0.68 | 7.89 | 13 | –
COc1cccc(NC(C(=O)c2c[nH]c3ccccc23)c2cn3ccccc3n2)c1 (stereo not drawn) [CPD-030] | – | – | – | 13.2 | > 126 | 0.09 | 4.8 | 6.24 | –
COc1cccc(NC(C(=O)c2c[nH]c3ccccc23)c2cccc3ccnn23)c1 (stereo not drawn) [CPD-043] | – | – | – | 4.76 | > 126 | 0.29 | 3.38 | 5.88 | –
COc1cc(NC(C(=O)c2c[nH]c3ccccc23)c2ccccc2)ccn1 (stereo not drawn) [CPD-045] | – | – | – | 11.1 | > 139 | 0.06 | 0.64 | 0.87 | –
COc1cccc(NC(C(=O)c2cn(C)c3ccccc23)c2ccccc2)c1 (stereo not drawn) [CPD-049] | – | – | – | 2.27 | > 134 | 0.08 | 2.21 | 10.5 | –
CN(C)C(=O)c1cccc(NC(C(=O)c2c[nH]c3ccccc23)c2ccccc2)c1 (stereo not drawn) [CPD-051] | – | – | – | 32.6 | > 125 | 2.47 | 5.76 | 24.2 | –
COc1cccc(NC(C(=O)c2c[nH]c3ccccc23)c2ccc(OC)nc2)c1 (stereo not drawn) [CPD-055] | – | – | – | 4.44 | 50 | 0.07 | 1.86 | 3.38 | –
COc1cccc(NC(C(=O)N2CCc3ccccc32)c2ccccc2)c1 (stereo not drawn) [CPD-056] | – | – | – | 5.92 | > 139 | 0.45 | 10.6 | 69.2 | –
COc1cccc(NC(C(=O)c2c[nH]c3c(Cl)cccc23)c2ccccc2)c1 (stereo not drawn) [CPD-084] | – | – | – | 3.09 | > 127 | 0.03 | < 0.5 | 2.38 | –
COc1cccc(NC(C(=O)c2c[nH]c3ccc(Cl)cc23)c2ccccc2)c1 (stereo not drawn) [CPD-086] | – | – | – | 3.57 | 12 | 0.04 | 0.97 | 1.05 | –
COc1cccc(NC(C(=O)c2cn(CCO)c3ccccc23)c2ccccc2)c1 (stereo not drawn) [CPD-104] | – | – | – | 14.9 | – | 0.35 | 3.85 | 24 | 65
COc1cccc(NC(C(=O)c2c[nH]c3ccc(C#N)cc23)c2ccccc2)c1 (stereo not drawn) [CPD-126] | – | – | – | 6.29 | 16 | 0.07 | 2.99 | 8.5 | –
COc1cccc(NC(C(=O)c2c[nH]c3ccc(C)cc23)c2ccccc2)c1 (stereo not drawn) [CPD-130] | – | – | – | 7.42 | 15 | 0.03 | 0.35 | 1.7 | –
COc1cccc(NC(C(=O)c2cn(C)c3ccc(F)cc23)c2ccccc2)c1 (stereo not drawn) [CPD-137] | – | – | – | 2.78 | > 128 | 0.05 | 0.67 | 3.81 | –
COc1cccc(NC(C(=O)c2cn(CCO)c3ccc(F)cc23)c2ccccc2)c1 (stereo not drawn) [CPD-146] | – | – | – | 4.25 | – | 0.05 | 0.69 | 2.72 | 25
COc1cc(NC(C(=O)c2cn(CCO)c3ccccc23)c2ccccc2)cc(OC)c1 (stereo not drawn) [CPD-148] | – | – | – | 2.87 | – | 0.07 | 1.65 | 5.54 | 44
COc1cccc(NC(C(=O)c2c[nH]c3cc(Cl)ccc23)c2cn3ccccc3n2)c1 (stereo not drawn) [CPD-150] | – | – | – | 8.87 | 105 | 0.03 | 1.28 | 1.07 | –
